What was measured:
Assay in all cases: biochemical
Set-up in all cases: KINOMEscan competition binding panel, per cent of control
Conditions in all cases: read-out: %Ctrl @ 2800nM
PKNB(M.tuberculosis) = PKNB(M.tuberculosis) (Mycobacterium tuberculosis, UniProt P9WI81)
MEK3 = target: T1, MEK3 (Homo sapiens, UniProt P46734)
T1 construct: gene MAP2K3
Description: (§1) A panel of binding assays covering 450 human kinases and disease-relevant mutations was performed by DiscoverX (KINOMEscan®, Freemont, CA, USA) according to the standard and validated protocol defined by the contractor. […] Kinase binding assays This study was outsourced to DiscoverX (KINOMEscan®, Freemont, CA, USA) and is compliant with the corresponding project BUY004-01-p-00001. […] Results are reported as percent control (% Ctrl), where lower numbers indicate stronger hits in the matrix on the following page(s). %Ctrl calculation: ((test compound signal-positive control signal) / (negative control signal – positive control signal)) x 100.

GRK1 = GRK1 (Homo sapiens, UniProt Q15835)
Description: as §1

LIMK1 = LIMK1 (Homo sapiens, UniProt P53667)
Description: as §1

MST2 = target: T2, MST2 (Homo sapiens, UniProt Q13188)
T2 construct: gene STK3
Description: as §1

NLK = NLK (Homo sapiens, UniProt Q9UBE8)
Description: as §1

PAK2 = PAK2 (Homo sapiens, UniProt Q13177)
Description: as §1

DRAK2 = target: T3, DRAK2 (Homo sapiens, UniProt O94768)
T3 construct: gene STK17B
Description: as §1

PCTK1 = target: T4, PCTK1 (Homo sapiens, UniProt Q00536)
T4 construct: gene CDK16
Description: as §1

STK16 = STK16 (Homo sapiens, UniProt O75716)
Description: as §1

CLK2 = CLK2 (Homo sapiens, UniProt P49760)
Description: as §1

EGFR = EGFR (Homo sapiens, UniProt P00533)
Description: as §1

PIKFYVE = PIKFYVE (Homo sapiens, UniProt Q9Y2I7)
Description: as §1

AKT1 = AKT1 (Homo sapiens, UniProt P31749)
Description: as §1

MST1 = target: T5, MST1 (Homo sapiens, UniProt Q13043)
T5 construct: gene STK4
Description: as §1

HIPK3 = HIPK3 (Homo sapiens, UniProt Q9H422)
Description: as §1

TRKC = target: T6, TRKC (Homo sapiens, UniProt Q16288)
T6 construct: gene NTRK3
Description: as §1

CAMK4 = CAMK4 (Homo sapiens, UniProt Q16566)
Description: as §1

RET(M918T) = RET(M918T) (Homo sapiens, UniProt P07949, M918T)
Description: as §1

ADCK3 = target: T7, ADCK3 (Homo sapiens, UniProt Q8NI60)
T7 construct: gene COQ8A
Description: as §1

RIPK4 = RIPK4 (Homo sapiens, UniProt P57078)
Description: as §1

AKT2 = AKT2 (Homo sapiens, UniProt P31751)
Description: as §1

RIPK5 = target: T8, RIPK5 (Homo sapiens, UniProt Q6XUX3)
T8 construct: gene DSTYK
Description: as §1

AURKB = AURKB (Homo sapiens, UniProt Q96GD4)
Description: as §1

ACVRL1 = ACVRL1 (Homo sapiens, UniProt P37023)
Description: as §1

PFPK5(P.falciparum) = target: T9, PFPK5(P.falciparum) (Plasmodium falciparum, UniProt P61075)
T9 construct: gene CRK2

Sequence of EGFR (P00533 whole entry): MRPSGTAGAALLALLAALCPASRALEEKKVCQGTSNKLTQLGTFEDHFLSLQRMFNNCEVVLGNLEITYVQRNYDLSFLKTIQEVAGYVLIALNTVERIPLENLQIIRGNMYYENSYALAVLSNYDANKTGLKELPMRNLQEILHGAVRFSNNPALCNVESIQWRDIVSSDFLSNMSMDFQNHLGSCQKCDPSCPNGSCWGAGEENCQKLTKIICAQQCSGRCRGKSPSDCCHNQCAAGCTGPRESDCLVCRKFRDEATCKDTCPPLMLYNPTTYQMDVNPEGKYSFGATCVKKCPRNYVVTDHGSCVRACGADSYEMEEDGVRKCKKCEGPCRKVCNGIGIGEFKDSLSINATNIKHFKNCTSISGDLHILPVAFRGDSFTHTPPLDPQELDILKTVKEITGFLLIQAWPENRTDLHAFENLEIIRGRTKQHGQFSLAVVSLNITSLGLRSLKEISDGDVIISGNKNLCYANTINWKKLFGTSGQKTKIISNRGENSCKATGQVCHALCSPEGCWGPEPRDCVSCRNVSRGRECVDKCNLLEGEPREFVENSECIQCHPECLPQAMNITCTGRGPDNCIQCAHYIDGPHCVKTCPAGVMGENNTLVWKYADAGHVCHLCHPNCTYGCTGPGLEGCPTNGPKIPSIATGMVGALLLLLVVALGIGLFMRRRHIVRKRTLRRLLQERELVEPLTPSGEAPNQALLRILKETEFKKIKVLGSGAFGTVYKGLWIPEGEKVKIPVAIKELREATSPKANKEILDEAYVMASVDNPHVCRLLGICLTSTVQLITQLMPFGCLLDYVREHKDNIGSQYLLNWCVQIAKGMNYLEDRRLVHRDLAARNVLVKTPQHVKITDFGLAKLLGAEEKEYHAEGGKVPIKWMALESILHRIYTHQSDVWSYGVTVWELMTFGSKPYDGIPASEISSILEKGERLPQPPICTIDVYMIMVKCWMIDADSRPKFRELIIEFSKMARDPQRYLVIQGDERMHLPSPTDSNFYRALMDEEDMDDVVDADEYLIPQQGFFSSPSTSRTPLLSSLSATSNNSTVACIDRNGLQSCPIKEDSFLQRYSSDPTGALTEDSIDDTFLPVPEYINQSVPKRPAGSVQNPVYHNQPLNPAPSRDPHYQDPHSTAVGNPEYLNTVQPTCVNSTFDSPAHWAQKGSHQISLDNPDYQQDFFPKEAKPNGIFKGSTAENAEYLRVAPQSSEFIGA
Sequence of RET(M918T) (P07949 whole entry M918T): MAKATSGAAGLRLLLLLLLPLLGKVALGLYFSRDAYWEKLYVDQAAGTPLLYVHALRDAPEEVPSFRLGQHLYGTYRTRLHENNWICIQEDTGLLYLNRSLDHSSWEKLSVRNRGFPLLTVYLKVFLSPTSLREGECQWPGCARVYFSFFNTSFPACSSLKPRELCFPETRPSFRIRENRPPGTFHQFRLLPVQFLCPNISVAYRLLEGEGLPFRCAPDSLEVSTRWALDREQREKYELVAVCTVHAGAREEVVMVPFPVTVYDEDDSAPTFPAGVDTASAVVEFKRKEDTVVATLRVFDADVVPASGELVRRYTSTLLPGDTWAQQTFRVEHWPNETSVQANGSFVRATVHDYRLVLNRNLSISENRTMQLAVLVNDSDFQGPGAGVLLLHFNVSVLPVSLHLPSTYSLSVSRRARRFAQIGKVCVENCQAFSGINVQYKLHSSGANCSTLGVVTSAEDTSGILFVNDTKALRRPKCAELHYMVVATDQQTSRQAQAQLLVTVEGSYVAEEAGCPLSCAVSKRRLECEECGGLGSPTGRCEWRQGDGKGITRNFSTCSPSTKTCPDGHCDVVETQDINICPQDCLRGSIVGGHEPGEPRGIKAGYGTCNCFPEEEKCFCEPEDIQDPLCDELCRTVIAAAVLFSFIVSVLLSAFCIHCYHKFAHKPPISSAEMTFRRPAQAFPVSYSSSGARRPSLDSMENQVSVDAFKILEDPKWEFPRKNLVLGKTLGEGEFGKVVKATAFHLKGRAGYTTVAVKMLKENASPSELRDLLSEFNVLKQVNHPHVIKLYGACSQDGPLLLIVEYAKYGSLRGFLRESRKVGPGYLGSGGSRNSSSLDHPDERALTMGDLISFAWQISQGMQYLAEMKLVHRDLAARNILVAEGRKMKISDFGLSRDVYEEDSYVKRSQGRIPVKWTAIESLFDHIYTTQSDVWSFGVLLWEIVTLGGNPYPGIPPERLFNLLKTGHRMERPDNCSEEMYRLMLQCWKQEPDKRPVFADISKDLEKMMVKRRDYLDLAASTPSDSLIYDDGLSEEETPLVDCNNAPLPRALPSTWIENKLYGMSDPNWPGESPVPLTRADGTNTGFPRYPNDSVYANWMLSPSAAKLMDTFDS
Sequence of LIMK1 (P53667 whole entry): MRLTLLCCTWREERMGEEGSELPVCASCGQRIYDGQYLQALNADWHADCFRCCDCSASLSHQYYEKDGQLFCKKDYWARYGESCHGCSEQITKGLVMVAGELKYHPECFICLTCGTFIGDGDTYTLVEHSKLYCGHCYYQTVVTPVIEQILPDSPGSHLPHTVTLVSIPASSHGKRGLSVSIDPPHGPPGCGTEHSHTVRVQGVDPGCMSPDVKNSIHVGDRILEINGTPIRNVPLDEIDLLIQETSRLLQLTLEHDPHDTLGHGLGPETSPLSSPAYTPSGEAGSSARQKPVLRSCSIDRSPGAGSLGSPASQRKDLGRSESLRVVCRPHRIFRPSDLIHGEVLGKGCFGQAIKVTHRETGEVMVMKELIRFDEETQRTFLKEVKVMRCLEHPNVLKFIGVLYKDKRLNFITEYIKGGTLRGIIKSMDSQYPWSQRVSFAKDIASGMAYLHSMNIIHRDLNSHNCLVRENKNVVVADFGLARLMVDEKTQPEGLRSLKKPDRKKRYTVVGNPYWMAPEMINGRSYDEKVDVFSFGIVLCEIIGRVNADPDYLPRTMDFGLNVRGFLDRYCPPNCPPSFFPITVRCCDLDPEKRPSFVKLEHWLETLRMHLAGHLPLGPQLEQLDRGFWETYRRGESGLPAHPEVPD
Sequence of CLK2 (P49760 whole entry): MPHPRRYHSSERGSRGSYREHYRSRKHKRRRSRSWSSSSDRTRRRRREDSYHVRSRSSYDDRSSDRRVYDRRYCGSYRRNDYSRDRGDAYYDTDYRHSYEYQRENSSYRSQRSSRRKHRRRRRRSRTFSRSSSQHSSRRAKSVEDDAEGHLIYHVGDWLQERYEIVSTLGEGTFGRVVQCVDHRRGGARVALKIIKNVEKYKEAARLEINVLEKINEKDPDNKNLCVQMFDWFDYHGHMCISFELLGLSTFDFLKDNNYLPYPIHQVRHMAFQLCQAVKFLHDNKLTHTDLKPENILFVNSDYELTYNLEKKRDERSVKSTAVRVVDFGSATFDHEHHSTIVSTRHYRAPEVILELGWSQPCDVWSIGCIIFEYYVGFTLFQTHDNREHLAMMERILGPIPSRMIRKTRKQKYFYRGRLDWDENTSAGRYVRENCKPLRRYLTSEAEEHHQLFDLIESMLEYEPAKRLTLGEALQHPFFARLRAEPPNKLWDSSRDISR
Sequence of AURKB (Q96GD4 whole entry): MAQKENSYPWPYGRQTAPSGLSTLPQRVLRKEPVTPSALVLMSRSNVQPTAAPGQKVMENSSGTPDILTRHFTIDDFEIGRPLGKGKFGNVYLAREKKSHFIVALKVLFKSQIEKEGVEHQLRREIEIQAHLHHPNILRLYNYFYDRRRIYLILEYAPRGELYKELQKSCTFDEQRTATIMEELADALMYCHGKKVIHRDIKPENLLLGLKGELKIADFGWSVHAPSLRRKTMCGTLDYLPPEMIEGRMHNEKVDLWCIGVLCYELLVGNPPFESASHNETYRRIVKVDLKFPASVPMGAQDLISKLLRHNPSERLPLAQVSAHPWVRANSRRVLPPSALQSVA
Sequence of GRK1 (Q15835 whole entry): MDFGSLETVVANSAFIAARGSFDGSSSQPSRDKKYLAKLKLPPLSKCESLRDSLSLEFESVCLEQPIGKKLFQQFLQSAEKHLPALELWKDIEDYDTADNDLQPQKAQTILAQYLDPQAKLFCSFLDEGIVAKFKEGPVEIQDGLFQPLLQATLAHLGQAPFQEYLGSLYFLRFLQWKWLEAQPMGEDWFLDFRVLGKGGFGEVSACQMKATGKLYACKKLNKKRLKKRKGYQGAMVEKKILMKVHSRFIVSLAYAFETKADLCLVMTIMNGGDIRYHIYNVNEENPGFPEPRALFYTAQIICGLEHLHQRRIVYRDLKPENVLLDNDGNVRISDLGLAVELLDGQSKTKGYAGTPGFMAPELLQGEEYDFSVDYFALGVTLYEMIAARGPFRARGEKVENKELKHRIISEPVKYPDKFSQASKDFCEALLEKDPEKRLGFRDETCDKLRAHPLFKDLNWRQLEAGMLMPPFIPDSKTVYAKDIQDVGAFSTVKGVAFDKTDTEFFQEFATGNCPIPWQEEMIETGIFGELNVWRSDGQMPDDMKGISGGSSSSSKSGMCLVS
Sequence of AKT1 (P31749 whole entry): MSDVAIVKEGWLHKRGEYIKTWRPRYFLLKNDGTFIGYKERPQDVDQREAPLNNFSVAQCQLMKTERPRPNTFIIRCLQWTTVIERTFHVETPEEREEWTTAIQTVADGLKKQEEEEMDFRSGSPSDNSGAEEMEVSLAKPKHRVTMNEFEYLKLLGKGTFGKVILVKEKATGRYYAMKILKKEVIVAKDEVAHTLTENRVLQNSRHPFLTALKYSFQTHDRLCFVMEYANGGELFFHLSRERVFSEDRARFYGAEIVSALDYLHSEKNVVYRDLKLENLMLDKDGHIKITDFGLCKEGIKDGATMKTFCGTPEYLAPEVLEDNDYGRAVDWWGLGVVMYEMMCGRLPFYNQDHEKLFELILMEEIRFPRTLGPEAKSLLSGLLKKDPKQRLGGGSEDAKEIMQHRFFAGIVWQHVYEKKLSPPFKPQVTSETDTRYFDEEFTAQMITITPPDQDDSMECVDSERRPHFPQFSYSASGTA

SMILES: [O-][S@@+](Cc1cncs1)C(c1ccccc1)c1ccccc1 [S-CE-123, (S)-5-((Benzhydrylsulfinyl)Methyl)Thiazole]
- remaining binding at 2.8 µM (PKNB(M.tuberculosis)): 96%
- remaining binding at 2.8 µM (MEK3): 86%
- remaining binding at 2.8 µM (GRK1): 100%
- remaining binding at 2.8 µM (LIMK1): 98%
- remaining binding at 2.8 µM (MST2): 80%
- remaining binding at 2.8 µM (NLK): 97%
- remaining binding at 2.8 µM (PAK2): 77%
- remaining binding at 2.8 µM (DRAK2): 95%
- remaining binding at 2.8 µM (PCTK1): 97%
- remaining binding at 2.8 µM (STK16): 97%
- remaining binding at 2.8 µM (CLK2): 93%
- remaining binding at 2.8 µM (EGFR): 92%
- remaining binding at 2.8 µM (PIKFYVE): 100%
- remaining binding at 2.8 µM (AKT1): 99%
- remaining binding at 2.8 µM (MST1): 97%
- remaining binding at 2.8 µM (HIPK3): 91%
- remaining binding at 2.8 µM (TRKC): 100%
- remaining binding at 2.8 µM (CAMK4): 91%
- remaining binding at 2.8 µM (RET(M918T)): 89%
- remaining binding at 2.8 µM (ADCK3): 87%
- remaining binding at 2.8 µM (RIPK4): 97%
- remaining binding at 2.8 µM (AKT2): 87%
- remaining binding at 2.8 µM (RIPK5): 95%
- remaining binding at 2.8 µM (AURKB): 78%
- remaining binding at 2.8 µM (ACVRL1): 84%
- remaining binding at 2.8 µM (PFPK5(P.falciparum)): 84%
